From PubChem BioAssay (NCI)
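Growth conditions: 96-well plates. Treatment: test compound, 48 hours, 5 concentrations. Analysis: linear interpolation between bracketing concentrations; unreached endpoints set to highest concentration. GI50 marks 50% less growth. Definition used: TGI = concentration required for complete inhibition of growth.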

Key:
Assay in all cases: inhibition of tumour cell growth, NCI panel, 48 h
M14 melanoma = tested on: M14 melanoma
SK-MEL-5 melanoma = tested on: SK-MEL-5 melanoma
NCI/ADR-RES ovarian = tested on: NCI/ADR-RES ovarian
CAKI-1 renal = tested on: CAKI-1 renal
TK-10 renal = tested on: TK-10 renal
NCI-H226 lung = tested on: NCI-H226 lung
COLO 205 colon = tested on: COLO 205 colon
OVCAR-3 ovarian = tested on: OVCAR-3 ovarian
CCRF-CEM leukemia = tested on: CCRF-CEM leukemia
A498 renal = tested on: A498 renal
SK-MEL-2 melanoma = tested on: SK-MEL-2 melanoma
U251 CNS = tested on: U251 CNS
786-0 renal = tested on: 786-0 renal
ACHN renal = tested on: ACHN renal
LOX IMVI melanoma = tested on: LOX IMVI melanoma
MOLT-4 leukemia = tested on: MOLT-4 leukemia
DU-145 prostate = tested on: DU-145 prostate
SR leukemia = tested on: SR leukemia
A549 NSCLC = tested on: A549 NSCLC
KM12 colon = tested on: KM12 colon
UO-31 renal = tested on: UO-31 renal
NCI-H23 lung = tested on: NCI-H23 lung
MCF7 breast = tested on: MCF7 breast
SNB-75 CNS = tested on: SNB-75 CNS
HOP-62 NSCLC = tested on: HOP-62 NSCLC
RXF 393 renal = tested on: RXF 393 renal
OVCAR-8 ovarian = tested on: OVCAR-8 ovarian
RPMI-8226 leukemia = tested on: RPMI-8226 leukemia

Nc1ccc(C(=O)c2ccc(N)c(Br)c2)cc1Br
GI50 (M14 melanoma): 320 nM
TGI (M14 melanoma): 72.5 µM
GI50 (SK-MEL-5 melanoma): 372 nM
TGI (SK-MEL-5 melanoma): 17.9 µM
GI50 (NCI/ADR-RES ovarian): 348 nM
TGI (NCI/ADR-RES ovarian): > 46.2 µM
GI50 (CAKI-1 renal): 299 nM
TGI (CAKI-1 renal): 14.7 µM
GI50 (TK-10 renal): 567 nM
TGI (TK-10 renal): 21.5 µM
GI50 (NCI-H226 lung): 4.27 µM
TGI (NCI-H226 lung): > 61.5 µM
GI50 (COLO 205 colon): 393 nM
TGI (COLO 205 colon): 2200 nM
GI50 (OVCAR-3 ovarian): 234 nM
TGI (OVCAR-3 ovarian): 517 nM
GI50 (CCRF-CEM leukemia): 483 nM
TGI (CCRF-CEM leukemia): > 100 µM
GI50 (A498 renal): 277 nM
TGI (A498 renal): 3.95 µM
GI50 (SK-MEL-2 melanoma): 435 nM
TGI (SK-MEL-2 melanoma): 3.99 µM
GI50 (U251 CNS): 419 nM
TGI (U251 CNS): 18.3 µM
GI50 (786-0 renal): 775 nM
TGI (786-0 renal): 17.8 µM
GI50 (ACHN renal): 1470 nM
TGI (ACHN renal): > 69.9 µM
GI50 (LOX IMVI melanoma): 848 nM
TGI (LOX IMVI melanoma): > 65.7 µM
GI50 (MOLT-4 leukemia): 654 nM
TGI (MOLT-4 leukemia): 59.4 µM
GI50 (DU-145 prostate): 334 nM
TGI (DU-145 prostate): 1580 nM
GI50 (SR leukemia): 253 nM
TGI (SR leukemia): 1350 nM
GI50 (A549 NSCLC): 494 nM
TGI (A549 NSCLC): 31.3 µM
GI50 (KM12 colon): 409 nM
TGI (KM12 colon): 12.8 µM
GI50 (UO-31 renal): 734 nM
TGI (UO-31 renal): 34 µM
GI50 (NCI-H23 lung): 1160 nM
TGI (NCI-H23 lung): > 100 µM
GI50 (MCF7 breast): 428 nM
TGI (MCF7 breast): > 100 µM
GI50 (SNB-75 CNS): 291 nM
TGI (SNB-75 CNS): 13.4 µM
GI50 (HOP-62 NSCLC): 538 nM
TGI (HOP-62 NSCLC): 22.7 µM
GI50 (RXF 393 renal): 279 nM
TGI (RXF 393 renal): 882 nM
GI50 (OVCAR-8 ovarian): 518 nM
TGI (OVCAR-8 ovarian): 46.1 µM
GI50 (RPMI-8226 leukemia): 346 nM
